The values that follow come from patent US4839371A, “3-aralkyl-2-mercaptoyridines as dopamine-β-hydroxylase inhibitors” (SmithKline Beckman Corporation, priority 1987, dated 1989).

Like-named read-outs stand apart in the source and are kept apart here.

The subject of experiment [1] is spontaneously hypertensive rats. Kind of experiment: mean arterial blood pressure in spontaneously hypertensive rats. The class given is in vivo. Conditions: 50 mg/kg intraperitoneally. From the text:
Maximal blood pressure reduction was approximately 50 to 55 mm Hg.

The target of experiment [2] is T1, DBH (Bos taurus, UniProt P15101).
T1 sequence (P15101 1-610): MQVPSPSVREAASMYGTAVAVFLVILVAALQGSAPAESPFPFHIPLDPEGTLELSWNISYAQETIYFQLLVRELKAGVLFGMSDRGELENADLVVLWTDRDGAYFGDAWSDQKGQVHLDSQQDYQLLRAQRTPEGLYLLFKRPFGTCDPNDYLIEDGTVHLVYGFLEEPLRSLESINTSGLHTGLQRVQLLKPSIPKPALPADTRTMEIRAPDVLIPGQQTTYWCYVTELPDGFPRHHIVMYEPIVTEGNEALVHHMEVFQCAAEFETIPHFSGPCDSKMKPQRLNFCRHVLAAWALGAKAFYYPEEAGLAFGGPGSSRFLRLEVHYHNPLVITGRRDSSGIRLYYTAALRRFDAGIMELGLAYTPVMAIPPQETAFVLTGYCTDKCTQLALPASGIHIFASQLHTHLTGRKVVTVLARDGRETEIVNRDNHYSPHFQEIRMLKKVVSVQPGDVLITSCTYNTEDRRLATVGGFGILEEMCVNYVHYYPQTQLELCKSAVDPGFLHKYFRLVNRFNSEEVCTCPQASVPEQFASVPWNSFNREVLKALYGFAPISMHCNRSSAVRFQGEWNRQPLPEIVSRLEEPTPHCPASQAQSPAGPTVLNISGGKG
In words: in vitro DBH inhibition (conversion of tyramine to octopamine, spectrophotometric at 330 nm).

Experiment [3] concerns DBH. Conditions: cited from earlier work.
Where [4] appears, read: patients, Friedman et al., Psychosomatic Med. 40, 107 (1978), significance uncertain.

The IC50 is the midpoint of a concentration-inhibition curve. High values mean weaker potency in that assay, low ones greater potency in that assay. `Fc1cc(F)cc(Cc2cccnc2S)c1`: the “blood pressure reduction compared to vehicle-treated controls” value in experiment [1] (monitored for 260 minutes) is “significant blood pressure reductions”. Also, the “time after treatment to significant blood pressure reductions” value in experiment [1] (within approximately) is not above 30 min. In addition, 134 µM corresponded to half-maximal inhibition on DBH [2] (IC50).

In turn, `Fc1cccc(Cc2cccnc2S)c1` [3-(3-Fluorobenzyl)-2-mercaptopyridine] yielded an IC50 against DBH [2] of 500 µM.

Turning to `C[C@](N)(Cc1ccc(O)c(O)c1)C(=O)O` [alpha-methyl-DOPA], the “lowered DBH levels in treated patients” value in the experiment with DBH [3] (setting [4]) was “lowered DBH levels”.

`CC(C)NCC(O)COc1cccc2ccccc12` (stereo not shown) [propranolol]: the “lowered DBH levels in treated patients” value in the experiment on DBH [3] (human, in vivo) is reported as “not”.

Consider `COC(=O)[C@H]1[C@H]2C[C@@H]3c4[nH]c5cc(OC)ccc5c4CCN3C[C@H]2C[C@@H](OC(=O)c2cc(OC)c(OC)c(OC)c2)[C@@H]1OC` [reserpine], for which the “lowered DBH levels in treated patients” value in the experiment with DBH [3] (setting [4]) was “lowered DBH levels”.
